# Results from patent US8968709B2, “Therapeutic dental composition and related methods” (3M Innovative Properties Company, priority 2007, dated 2015).
# Where two headings read alike, the source gives them in different places.
# Assays:
# Type in all cases: cell-based
# [1] = system: Staphylococcus aureus (strain ATCC 6538); test: Minimum Inhibitory Concentration (MIC) Test, S. aureus; settings: tryptic soy broth, 37° C., 24 hours, "none" = no inhibitory activity detected
# Description: (§1) The MIC Test was carried out using successively lower concentrations of compounds. Sterile tryptic soy broth (50 microliters; TSB, available from BD Dfico, Becton, Dickinson and Company, Franklin Lakes, N.J.) was deposited into each well of a sterile polystyrene 96-well microtiter plate. Into each well in the first (leftmost) column of the plate, there was then deposited a 50 microliter aliquot (of known concentration) of a compound (I.e., a compound of Formula I, or a pharmaceutically acceptable salt thereof, or comparative compound). A 50 microliter aliquot of the mixture in the first (leftmost) well in the first row of the plate was transferred to the second well in the first row. A 50 microliter aliquot of the mixture in the second well in the first row was then transferred to the third well in the first row. The compound was successively diluted (1:1 dilution at each step) by transferring a 50 microliter aliquot from one well into the next well, across the row of the plate. This procedure was repeated for each row of the plate. Then, an overnight culture of Streptococcus mutans (strain ATCC 25175) was diluted 1:100 into sterile tryptic soy broth. A 50 microliter aliquot of the diluted S. mutans culture (10^5 CFU) was deposited into each well of the microtiter plate. The plate was then incubated at 37° C. for 24 hours in a sealed humidified chamber. The plate was then visually inspected to determine the lowest concentration of compound at which no bacterial growth was visible. This value was considered to be the minimum inhibitory concentration (MTC) for the compound. The test was repeated using Staphylococcus aureus (strain ATCC 6538) and Pseudomonas aeruginosa (strain ATCC 9027) in place of S. mutans. A sample of each of the compounds of Formulae II, III, IV, V, and VI (0.050 g each) was dissolved in water (5 g). Each of the samples was evaluated using the Minimum Inhibitory Concentration (MIC) Test described above with S. mutans, S. aureus, and P. aeruginosa. In Table 3, “none” means that no inhibitory activity was detected.
# [2] = system: Pseudomonas aeruginosa (strain ATCC 9027); test: Minimum Inhibitory Concentration (MIC) Test, P. aeruginosa; settings: 37° C., 24 hours, "none" = no inhibitory activity detected
# Description: as §1
# [3] = system: Streptococcus mutans (strain ATCC 25175); test: Minimum Inhibitory Concentration (MIC) Test, S. mutans; settings: 37° C., 24 hours, "none" = no inhibitory activity detected
# Description: as §1
# [4] = system: Streptococcus mutans (ATCC 25175) biofilm; test: Quantitative Biofilm Inhibition Test; settings: average optical density at 550 nm as percentage of control; 1 weight percent compound, 1.0 weight percent sucrose in brain heart infusion broth, 37° C., approximately twenty hours, five discs
# Description: Compounds of the dental compositions of the invention, and comparative compounds, were evaluated for biofilm inhibition activity. Composite dental restorative (available under the trade designation “FILTEK SUPREME” from 3M ESPE Dental Products, St. Paul, Minn.) was placed in a 15 millimeter by 1 millimeter stainless steel die. The open ends of the die were then covered with polyester film and the die was subjected to a pressure of 68.95 MPa using a hydraulic press. While the die containing the composite restorative was under compression, the composite was irradiated for two minutes using a Model ACE light source (available from SCHOTT North America, Inc., Auburn, N.Y.). The discs of cured composite restorative were then further cured using a Model UniXS light box (available from Heraeus Kulzer, Inc., Armonk, N.Y.) for 1.5 minutes.
# The cured discs of composite restorative were then immersed in ten milliliters of Streptococcus mutans culture (ATCC 25175; 10^6 CFU/mL) prepared in brain heart infusion broth that contained 1.0 weight percent sucrose and 1 weight percent of a compound of the dental composition. The samples were incubated at 37° C. for approximately twenty hours, after which time the cured discs were removed from the broth and were gently rinsed with water. Each disc was placed in a separate test tube containing five milliliters of 1M aqueous sodium hydroxide solution, and each test tube was then sonicated for two minutes using a model SH1012-40-8 ultrasonic generator (manufactured by Branson Ultrasonics Corp., Danbury, Conn.) for two minutes to dislodge biofilm on the disc. The optical absorbance (optical density) of each aqueous sodium hydroxide solution was then measured at 550 nm using a Model ULTROSPEC III UV-visible spectrophotometer (manufactured by Pharmacia AB, Uppsala, Sweden). For each compound of the dental composition, five discs were separately incubated in broth and were evaluated separately to provide five optical density measurements. The average of the five optical density measurements was then calculated. […] The average optical density of the control or comparative samples was determined as described above. The ratio, expressed as a percentage, of the average optical density for each compound sample to the average optical density for a control sample was calculated by dividing the average optical density for each compound sample by the average optical density for a control sample and multiplying the result by one hundred. The ratio was considered to be proportional to the average amount of biofilm on the five cured discs, i.e., relatively low average optical density ratio was considered to be indicative of inhibition of biofilm formation. The ratio for the control was 100%.
# (§2) The Biofilm Inhibition Test was carried out using compounds of the dental composition. […] In addition, a qualitative determination of biofilm formation was made for each Example and the Comparative Example in which each disc was visually examined before it was placed in the tube containing the aqueous sodium hydroxide solution.
# [5] = system: Streptococcus mutans (ATCC 25175) biofilm; test: Qualitative Biofilm Inhibition Test (visual examination of discs); design: key: +: a visual assessment that a compound inhibited biofilm formation; −: a visual assessment that either a compound did not inhibit biofilm formation, or that bacteria grew in the culture broth; settings: visible biofilm on cured composite disc after incubation and water rinse; 1 weight percent compound, 1.0 weight percent sucrose
# Description: as §2, with “During the procedure for the Quantitative Biofilm Inhibition Test, each cured disc was visually examined after it was removed from the broth (and rinsed with water) and before it was placed in a test tube containing five milliliters of 1M aqueous sodium hydroxide solution. The presence or absence of visible biofilm on a disc was noted. The” for “The”
# [6] = system: Streptococcus mutans (ATCC 25175) biofilm; test: Biofilm Inhibition Test: concentration of compound to inhibit biofilm formation at varied sucrose
# [7] = Streptococcus mutans, ATCC25175, tryptic soy broth, read-out: MIC
Compound,MIC [1],"MIC ([2]; Pseudomonas aeruginosa, ATCC9027, tryptic soy broth, read-out: MIC) [µg/mL]","MIC [3, 7] [µg/mL]",OD Ratio [4] [%],Visual Assessment [5],MIC ([2]; tryptic soy broth),MIC ([3]; tryptic soy broth),Concentration of Compound to Inhibit Biofilm Formation ([6]; 1 wt % Sucrose) [mM],Concentration of Compound to Inhibit Biofilm Formation ([6]; 2.5 wt % Sucrose) [mM],Concentration of Compound to Inhibit Biofilm Formation ([6]; 5 wt % Sucrose) [mM]
"CCCCCCCCCC(=O)N(C)C[C@H](O)[C@@H](O)[C@H](O)[C@H](O)CO [N-Methyl-N-decanoyl-D-glucamine, N-methyl-N-decanoyl-D-glucamine]",2.50,2500,1250,0,+,–,–,–,–,–
"CCCCCCCC(=O)N(C)C[C@H](O)[C@@H](O)[C@H](O)[C@H](O)CO [N-Methyl-N-octanoyl-D-glucamine, N-methyl-N-octanoyl-D-glucamine]",none,–,–,0,+,none,none,–,–,–
"CCCCCCCCC(=O)N(C)C[C@H](O)[C@@H](O)[C@H](O)[C@H](O)CO [N-Methyl-N-nonanoyl-D-glucamine, N-methyl-N-nonanoyl-D-glucamine]",none,–,2500,0,+,none,–,–,–,–
"CNC[C@H](O)[C@@H](O)[C@H](O)[C@H](O)CO [N-Methyl-D-glucamine, N-methyl-D-glucamine]",none,–,–,0,+,none,none,50,50,50
"NC[C@H](O)[C@@H](O)[C@H](O)[C@H](O)CO [D-Glucamine, D-glucamine]",none,–,–,101.5,+,none,none,–,–,–
